Tests used:
HEK-Kir cells = assay: Membrane potential of HEK-Kir cells, current clamp method; format: cell-based, human; conditions: 100 μM Ba ions, resting potential about −70 mV before, FIG. 2B
Kir 2.1 channel = biological target: T1, Kir 2.1 channel (Homo sapiens, UniProt P63252); assay: Kir channel current in HEK-Kir cells, voltage clamp method; format: cell-based; conditions: 100 μM Ba ions, FIG. 2A
T1 construct: expressed in transfected cells
T1 sequence (P63252 1-427): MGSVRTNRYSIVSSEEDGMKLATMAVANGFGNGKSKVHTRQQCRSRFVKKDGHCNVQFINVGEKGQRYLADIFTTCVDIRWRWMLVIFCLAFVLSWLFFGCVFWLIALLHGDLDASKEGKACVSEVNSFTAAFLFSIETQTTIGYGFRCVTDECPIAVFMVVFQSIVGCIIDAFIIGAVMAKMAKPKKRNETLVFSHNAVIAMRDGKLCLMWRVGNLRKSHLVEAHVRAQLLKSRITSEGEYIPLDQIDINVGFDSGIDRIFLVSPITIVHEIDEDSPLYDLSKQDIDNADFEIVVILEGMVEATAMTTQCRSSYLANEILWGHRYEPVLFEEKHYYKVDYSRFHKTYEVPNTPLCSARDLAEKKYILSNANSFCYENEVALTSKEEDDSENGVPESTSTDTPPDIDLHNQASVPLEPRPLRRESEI
Protocol: (§1) Human-derived embryonic kidney cells (HEK293 cells) were purchased from the Health Sciences Research Resource Bank (HSRRB). 10% FBS (Gibco Corp.) was added thereto followed by culturing at 37° C. in 5% CO2 in D-MEM medium (Wako Pure Chemical Industries, Ltd.) containing 100 U/ml penicillin (Wako Pure Chemical Industries, Ltd.) and 100 μg/ml streptomycin (Meiji Seika Kaisha, Ltd.). pcDNA/Kir 2.1, obtained by subcloning human-derived Kir 2.1 (NM_00891.2) in pcDNA3.1(+) (Invitrogen Corp.), was inserted using Lipofectamine 2000 reagent (Invitrogen Corp.) followed by culturing in medium obtained by adding 0.2 mg/ml Zeocin (Invitrogen Corp.) to the above-mentioned D-MEM medium and then cloning Zeocin resistant cells to produce Kir 2.1 constantly expressing cells (HEK-Kir). In addition, the inactivated mutant Nav-QQQ (HEK-Kir-mutated Nay) was inserted into the Kir 2.1 constantly expressing cells using the same method followed by conducting experiments 24 to 72 hours later.
Kir channel current was measured by applying the voltage clamp method to HEK-Kir cells.

[1] = test system: HEK-Kir-mutated Nav cells; assay: DiBAC4(3) membrane potential fluorescence under high K+ stimulation in HEK-Kir-mutated Nav cells; format: cell-based, human; conditions: 1 mM lidocaine, extracellular K ion 5.9 mM to 15.3 mM, FIG. 17
Protocol: In the present example, a study was conducted on measurement of membrane potential using a membrane potential-sensitive dye in the form of DiBAC4(3), and using an extracellular solution containing K ions at a high concentration for depolarizing stimulation.
After loading two types of cells (HEK and HEK-Kir-mutated Nav cells) with 100 nM DiBAC4(3) (bis(1,3-dibutylbarbituric acid)trimethine oxanol) in normal HEPES buffer containing the dye for 30 minutes at room temperature, and fluorescence was measured at 520 nm or higher by exciting at 488 nm and reflecting with a dichroic mirror at 505 nm. In addition, high K^+ extracellular fluid having an increased K ion concentration was used as a stimulus to depolarize the cell membrane. This is because K ions are primarily involved in formation of resting membrane potential. […] In the present example, changes in fluorescence intensity of two types of cells were measured using this depolarizing stimulus. Furthermore, measurements were carried out based on a value of 1 for fluorescence intensity in the case of making the extracellular K ion concentration to be 140 mM K^+. The Argus/HiSCA high-speed, cooled CCD camera fluorescent imaging system (Hamamatsu Photonics K.K.) was used to measure fluorescence.

[2] = test system: HEK-Kir-mutated Nav cells; assay: Cell death by electrical stimulation, MTT method, HEK-Kir-mutated Nav cells; format: cell-based, human; conditions: square wave 80 mA, 200 ms, three times at 3 min intervals, FIG. 6
Protocol: as §1, with “In addition, the inactivated mutant Nav-QQQ (HEK-Kir-mutated Nay) was inserted into the Kir 2.1 constantly expressing cells using the same method followed by conducting experiments 24 to 72 hours later.” left out
It was clearly determined from the results described in section 2 above that an extremely long action potential is generated in the mutant type Nav 1.5 channel. Since there is thought to be the possibility of cell death occurring when the action potential is generated by electrical stimulation, cell death attributable to electrical stimulation was measured. […] On the basis thereof, cell death was determined to occur in HEK-Kir-mutated Nav cells as a result of generating an extremely long action potential, while inhibition of Na ion channels blocked cell death.

| SMILES | resting membrane potential (HEK-Kir cells) | inward Kir channel current (Kir 2.1 channel) | changes in fluorescence caused by high K+ stimulation [1] | occurrence of cell death attributable to electrical stimulation [2] |
| --- | --- | --- | --- | --- |
| [Ba+2] [Ba ions] | became shallow | inhibited | – | – |
| CCN(CC)CC(=O)Nc1c(C)cccc1C [lidocaine] | – | – | inhibited | inhibited |

Reference: US9133496B2, “Material for screening for compound acting on ion channel and use thereof” (priority 2010, dated 2015)
